Tests used:
Experiment in all cases: relative viability (nuclei count vs DMSO), 5 days (fraction); higher = more cells survive
Ibrutinib + Olaparib = compound: C=CC(=O)N1CCC[C@@H](n2nc(-c3ccc(Oc4ccccc4)cc3)c3c(N)ncnc32)C1 [Ibrutinib] + O=C(c1cc(Cc2n[nH]c(=O)c3ccccc23)ccc1F)N1CCN(C(=O)C2CC2)CC1 [Olaparib] (partner 8 µM)
Summary of the method: (§1)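 Dosing by pin tool came one day after lung cancer cell lines were seeded in 1536-well plates, using either one drug or a fixed anchor-drug dose plus five library-drug doses (not always all listed) in √10 steps. After 5 days, nuclei were counted on 4× images. Relative viability is treated-well nuclei count divided by vehicle-well nuclei count, and values are medians of duplicate plates.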

Ibrutinib + Tozasertib = compound: C=CC(=O)N1CCC[C@@H](n2nc(-c3ccc(Oc4ccccc4)cc3)c3c(N)ncnc32)C1 [Ibrutinib] + Cc1cc(Nc2cc(N3CCN(C)CC3)nc(Sc3ccc(NC(=O)C4CC4)cc3)n2)n[nH]1 [Tozasertib] (partner 0.1 µM)
Summary of the method: as §1

Ibrutinib = compound: C=CC(=O)N1CCC[C@@H](n2nc(-c3ccc(Oc4ccccc4)cc3)c3c(N)ncnc32)C1 [Ibrutinib]
Summary of the method: (§2)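 On vehicle-anchored 1536-well plates, lung cancer cell lines held overnight at 37 °C were pinned with five library-drug doses (not always all listed) spaced by √10. With no medium change over 5 days, they were then fixed, permeabilised and Hoechst-stained in one step and imaged at 4×. MetaXpress counted nuclei, and viability is the median across plates of treated-well over vehicle-well nuclei. Acceptance needed control CV below 25% and at least one doubling.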

PAC-1 = compound: C=CCc1cccc(/C=N/NC(=O)CN2CCN(Cc3ccccc3)CC2)c1O [PAC-1]
Summary of the method: as §2

Cell Line	relative viability (Ibrutinib + Olaparib; first compound 0.01581 µM)	relative viability (Ibrutinib + Olaparib; first compound 0.05 µM)	relative viability (Ibrutinib + Olaparib; first compound 0.1581 µM)	relative viability (Ibrutinib + Olaparib; first compound 0.5 µM)	relative viability (Ibrutinib + Tozasertib; first compound 0.005 µM)	relative viability (Ibrutinib + Tozasertib; first compound 0.01581 µM)	relative viability (Ibrutinib + Tozasertib; first compound 0.05 µM)	relative viability (Ibrutinib + Tozasertib; first compound 0.1581 µM)	relative viability (Ibrutinib + Tozasertib; first compound 0.5 µM)	relative viability (Ibrutinib; 0.005 µM)	relative viability (Ibrutinib; 0.01581 µM)	relative viability (Ibrutinib; 0.05 µM)	relative viability (Ibrutinib; 0.1581 µM)	relative viability (Ibrutinib; 0.5 µM)	relative viability (PAC-1; 0.02 µM)	relative viability (PAC-1; 0.06325 µM)	relative viability (PAC-1; 0.2 µM)	relative viability (PAC-1; 2 µM)	relative viability (Ibrutinib + Olaparib; first compound 0.005 µM)
HCC-78	0.773	0.716	0.87	0.679	0.577	0.327	0.434	0.494	0.343	0.904	0.97	0.916	0.748	0.691	1.01	0.892	0.974	1.11	
HCC-366	0.33	0.357	0.403	0.381	0.127	0.116	0.107	0.118	0.0964	1	0.962	0.968	0.913	1	0.997	0.979	1.02	1.03	0.401
HCC-827	0.667	0.568	0.681	0.216	0.396	0.39	0.513	0.437	0.224		1.01	1.08	1.02	0.868	1.08	1.04	1.07	1.03	0.699
HOP-62	0.387	0.504	0.628	0.381	0.447	0.408	0.467	0.403	0.473	1.02	0.964	0.994	0.949	1.14	1.05	1	0.996	1.07	0.549
IA-LM	0.891	0.797	0.936	1.04						0.794	1	1.06	1.05	1.04	1.09	1.05	0.89	1.03	0.881
LC-2-ad	0.719	0.859	0.741	0.739	0.497	0.413	0.388	0.449	0.382	0.996	0.973	0.941	0.905	0.995	1.01	1.04	1.01	0.974	0.802
LCLC-97TM1	0.334	0.517	0.498	0.389	0.601	0.426	0.216	0.241	0.224	1.11	0.888	0.906	0.85	0.909	0.897	1.16	0.807	0.937	0.383
LCLC-103H	0.744		0.739	0.758	0.493	0.495	0.531	0.527	0.439	0.966	0.999	0.965	0.882	0.946	1	0.975	1.02	1.01	0.769
LK-2	0.691	0.715	0.628	0.425		0.165	0.185	0.168	0.157	0.936	0.912	0.956	0.929	0.949	0.933	0.983	1	1.02	0.633
